# Tests used:
# Apera spica-venti = assay: Test Example 5: herbicidal effect by foliage application, plastic box (symbol L); type: in vivo; conditions: 320 g/ha, 3 weeks after application
# Procedure, shortened: (§1)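 After sowing into sterilized diluvial soil and growing two weeks under glass at 25° C. to 30° C., seedlings receive a uniform foliar spray of diluted emulsion. Damage is judged visually three weeks on.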
# soybean = assay: Test Example 5: effect on crop by foliage application, plastic box (symbol d); type: in vivo; conditions: 320 g/ha, 3 weeks after application
# Procedure, shortened: (§2)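 Seeds were sown in spots in sterilized diluvial soil held in a plastic box 21 cm × 13 cm × 7 cm deep, covered with about 1.5 cm of soil, and grown in a greenhouse at 25° C. to 30° C.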
# Digitaria ciliaris = assay: Test Example 5: herbicidal effect by foliage application, plastic box (symbol F); type: in vivo; conditions: 320 g/ha, 3 weeks after application
# Procedure, shortened: as §1
# [1] = tested on: Echinochloa crus-galli var. crus-galli; assay: Test Example 5: herbicidal effect by foliage application, plastic box (symbol H); type: in vivo; conditions: 320 g/ha, 3 weeks after application
# Procedure, shortened: as §1
# Alopecurus myosuroides = assay: Test Example 5: herbicidal effect by foliage application, plastic box (symbol J); type: in vivo; conditions: 320 g/ha, 3 weeks after application
# Procedure, shortened: as §1
# beet = assay: Test Example 5: effect on crop by foliage application, plastic box (symbol f); type: in vivo; conditions: 320 g/ha, 3 weeks after application
# Procedure, shortened: as §2
# rice plant = assay: Test Example 5: effect on crop by foliage application, plastic box (symbol b); type: in vivo; conditions: 320 g/ha, 3 weeks after application
# Procedure, shortened: as §2
# Lolium multiflorum Lam. = assay: Test Example 5: herbicidal effect by foliage application, plastic box (symbol K); type: in vivo; conditions: 320 g/ha, 3 weeks after application
# Procedure, shortened: as §1
# Abutilon theophrasti = assay: Test Example 5: herbicidal effect by foliage application, plastic box (symbol M); type: in vivo; conditions: 320 g/ha, 3 weeks after application
# Procedure, shortened: as §1
# Avena fatua = assay: Test Example 5: herbicidal effect by foliage application, plastic box (symbol I); type: in vivo; conditions: 320 g/ha, 3 weeks after application
# Procedure, shortened: as §1
# corn = assay: Test Example 5: effect on crop by foliage application, plastic box (symbol c); type: in vivo; conditions: 320 g/ha, 3 weeks after application
# Procedure, shortened: as §2
# Veronica persica = assay: Test Example 5: herbicidal effect by foliage application, plastic box (symbol R); type: in vivo; conditions: 320 g/ha, 3 weeks after application
# Procedure, shortened: as §1
# rapeseed = assay: Test Example 5: effect on crop by foliage application, plastic box (symbol g); type: in vivo; conditions: 320 g/ha, 3 weeks after application
# Procedure, shortened: as §2
# wheat = assay: Test Example 5: effect on crop by foliage application, plastic box (symbol e); type: in vivo; conditions: 320 g/ha, 3 weeks after application
# Procedure, shortened: as §2
# Stellaria media = assay: Test Example 5: herbicidal effect by foliage application, plastic box (symbol P); type: in vivo; conditions: 320 g/ha, 3 weeks after application
# Procedure, shortened: as §1
# Amaranthus retroflexus = assay: Test Example 5: herbicidal effect by foliage application, plastic box (symbol N); type: in vivo; conditions: 320 g/ha, 3 weeks after application
# Procedure, shortened: as §1
# Setaria viridis = assay: Test Example 5: herbicidal effect by foliage application, plastic box (symbol G); type: in vivo; conditions: 320 g/ha, 3 weeks after application
# Procedure, shortened: as §1
smiles,measurement,setting,value
CON=C(C)CC1CC(O)=C(c2c(C)cc([N+](=O)[O-])cc2C)C1=O (stereo not drawn) [6-032],"L: Apera spica-venti, herbicidal effect grade",Apera spica-venti,0 (Herbicidal ratio of 5% or lower (almost no effect))
same,"d: soybean, effect on crop grade",soybean,0 (Herbicidal ratio of 5% or lower (almost no effect))
same,melting point,,181 to 183 °C
same,"F: Digitaria ciliaris, herbicidal effect grade",Digitaria ciliaris,4 (Herbicidal ratio of 70% or higher and lower than 90%)
same,"H: Echinochloa crus-galli var. crus-galli, herbicidal effect grade",[1],4 (Herbicidal ratio of 70% or higher and lower than 90%)
same,"J: Alopecurus myosuroides, herbicidal effect grade",Alopecurus myosuroides,0 (Herbicidal ratio of 5% or lower (almost no effect))
same,"f: beet, effect on crop grade",beet,0 (Herbicidal ratio of 5% or lower (almost no effect))
same,"b: directly sowed rice plant, effect on crop grade",rice plant,0 (Herbicidal ratio of 5% or lower (almost no effect))
same,"K: Lolium multiflorum Lam., herbicidal effect grade",Lolium multiflorum Lam.,0 (Herbicidal ratio of 5% or lower (almost no effect))
same,"M: Abutilon theophrasti, herbicidal effect grade",Abutilon theophrasti,0 (Herbicidal ratio of 5% or lower (almost no effect))
same,"I: Avena fatua, herbicidal effect grade",Avena fatua,0 (Herbicidal ratio of 5% or lower (almost no effect))
same,"c: corn, effect on crop grade",corn,0 (Herbicidal ratio of 5% or lower (almost no effect))
same,"R: Veronica persica, herbicidal effect grade",Veronica persica,0 (Herbicidal ratio of 5% or lower (almost no effect))
same,"g: rapeseed, effect on crop grade",rapeseed,0 (Herbicidal ratio of 5% or lower (almost no effect))
same,"e: wheat, effect on crop grade",wheat,0 (Herbicidal ratio of 5% or lower (almost no effect))
same,"P: Stellaria media, herbicidal effect grade",Stellaria media,0 (Herbicidal ratio of 5% or lower (almost no effect))
same,"N: Amaranthus retroflexus, herbicidal effect grade",Amaranthus retroflexus,0 (Herbicidal ratio of 5% or lower (almost no effect))
same,"G: Setaria viridis, herbicidal effect grade",Setaria viridis,3 (Herbicidal ratio of 40% or higher and lower than 70%)

# Reference: US11000033B2, “Ketone or oxime compound, and herbicide” (NISSAN CHEMICAL CORPORATION, priority 2014, dated 2021)
